# Experimental data as given in ChEMBL document CHEMBL1201862, “PubChem BioAssay data set” (2004).
# Calls of active or inactive are those of the source.
# Legend:
# [1] = target: Peroxisome proliferator-activated receptor gamma/Nuclear receptor coactivator 2 (Homo sapiens, UniProt P37231); assay type: functional;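 further: agonist potency for raising coactivator recruitment to the receptor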
# [2] = target: Peroxisome proliferator-activated receptor gamma/Nuclear receptor coactivator 1 (Homo sapiens, UniProt P37231); assay type: functional;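 further: agonist potency as compounds enhance coactivator SRC-1 recruitment to PPARgamma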
# [3] = target: Peroxisome proliferator-activated receptor gamma/Nuclear receptor coactivator 3 (Homo sapiens, UniProt P37231); assay type: functional;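 further: agonist potency for raising coactivator recruitment to the receptor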
# Chain of Peroxisome proliferator-activated receptor gamma/Nuclear receptor coactivator 3 (P37231 whole entry): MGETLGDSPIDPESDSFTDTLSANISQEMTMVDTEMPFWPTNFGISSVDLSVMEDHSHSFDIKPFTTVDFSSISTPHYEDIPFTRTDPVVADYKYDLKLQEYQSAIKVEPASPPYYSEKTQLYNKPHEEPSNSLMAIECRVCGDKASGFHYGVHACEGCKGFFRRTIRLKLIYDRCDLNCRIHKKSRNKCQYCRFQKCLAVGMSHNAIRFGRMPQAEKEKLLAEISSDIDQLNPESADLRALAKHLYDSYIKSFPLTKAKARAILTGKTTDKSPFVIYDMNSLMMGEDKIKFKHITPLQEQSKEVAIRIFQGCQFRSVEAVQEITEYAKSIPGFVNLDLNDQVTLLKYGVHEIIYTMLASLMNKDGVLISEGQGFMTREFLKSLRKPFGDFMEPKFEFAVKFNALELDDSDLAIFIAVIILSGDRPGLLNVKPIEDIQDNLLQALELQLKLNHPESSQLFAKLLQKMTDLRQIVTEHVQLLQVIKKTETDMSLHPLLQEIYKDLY
# Chain of Peroxisome proliferator-activated receptor gamma/Nuclear receptor coactivator 3 (Q9Y6Q9 whole entry, further chain): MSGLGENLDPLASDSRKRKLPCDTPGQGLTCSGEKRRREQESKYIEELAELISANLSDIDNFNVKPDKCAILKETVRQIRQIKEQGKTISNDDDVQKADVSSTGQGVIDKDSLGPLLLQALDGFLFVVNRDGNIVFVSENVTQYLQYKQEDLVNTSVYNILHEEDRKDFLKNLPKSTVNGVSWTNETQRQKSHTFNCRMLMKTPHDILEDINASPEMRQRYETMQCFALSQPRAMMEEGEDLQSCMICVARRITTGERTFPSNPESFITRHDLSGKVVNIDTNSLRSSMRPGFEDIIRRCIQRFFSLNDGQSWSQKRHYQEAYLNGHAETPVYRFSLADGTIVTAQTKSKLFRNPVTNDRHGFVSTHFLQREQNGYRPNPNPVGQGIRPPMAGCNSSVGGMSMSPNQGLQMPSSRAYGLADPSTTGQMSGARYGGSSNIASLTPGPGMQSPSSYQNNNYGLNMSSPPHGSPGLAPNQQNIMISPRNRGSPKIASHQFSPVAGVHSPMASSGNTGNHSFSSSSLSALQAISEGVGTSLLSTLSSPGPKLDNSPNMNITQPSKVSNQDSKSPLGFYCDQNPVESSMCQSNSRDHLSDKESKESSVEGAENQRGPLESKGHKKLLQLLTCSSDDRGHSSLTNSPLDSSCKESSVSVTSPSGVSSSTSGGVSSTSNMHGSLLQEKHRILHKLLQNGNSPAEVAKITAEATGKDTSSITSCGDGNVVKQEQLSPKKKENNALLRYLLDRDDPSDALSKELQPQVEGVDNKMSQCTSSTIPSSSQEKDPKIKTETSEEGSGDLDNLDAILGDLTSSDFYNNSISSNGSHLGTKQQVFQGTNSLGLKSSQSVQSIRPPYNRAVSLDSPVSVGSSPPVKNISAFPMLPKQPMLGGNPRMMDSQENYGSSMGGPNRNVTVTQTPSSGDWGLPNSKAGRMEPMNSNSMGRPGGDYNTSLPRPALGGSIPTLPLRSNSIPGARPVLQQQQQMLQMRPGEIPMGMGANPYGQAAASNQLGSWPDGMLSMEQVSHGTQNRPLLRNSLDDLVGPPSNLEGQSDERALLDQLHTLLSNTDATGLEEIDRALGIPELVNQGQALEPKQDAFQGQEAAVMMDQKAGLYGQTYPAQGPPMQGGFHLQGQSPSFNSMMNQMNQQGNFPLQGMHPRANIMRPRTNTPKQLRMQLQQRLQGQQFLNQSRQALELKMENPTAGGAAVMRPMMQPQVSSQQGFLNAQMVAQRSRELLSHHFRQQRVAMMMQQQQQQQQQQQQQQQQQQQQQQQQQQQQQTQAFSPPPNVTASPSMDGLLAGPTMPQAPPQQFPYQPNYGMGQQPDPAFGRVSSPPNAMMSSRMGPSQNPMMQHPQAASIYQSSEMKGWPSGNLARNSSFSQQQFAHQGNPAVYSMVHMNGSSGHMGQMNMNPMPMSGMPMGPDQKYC
# [4] = target: Eukaryotic translation initiation factor 4H (Homo sapiens, UniProt Q15056); assay: eIF4H binding inhibition – biochemical, uHTS, fluorescence polarization, translation initiation inhibitor project, primary screen (AID 2012)
# [5] = target: Polyadenylate-binding protein 1 (Homo sapiens, UniProt P11940); assay: blockers of PABP interaction with poly(A) – biochemical, fluorescence polarization, […] (AID 2014)
# Chain of Polyadenylate-binding protein 1 (P11940 whole entry): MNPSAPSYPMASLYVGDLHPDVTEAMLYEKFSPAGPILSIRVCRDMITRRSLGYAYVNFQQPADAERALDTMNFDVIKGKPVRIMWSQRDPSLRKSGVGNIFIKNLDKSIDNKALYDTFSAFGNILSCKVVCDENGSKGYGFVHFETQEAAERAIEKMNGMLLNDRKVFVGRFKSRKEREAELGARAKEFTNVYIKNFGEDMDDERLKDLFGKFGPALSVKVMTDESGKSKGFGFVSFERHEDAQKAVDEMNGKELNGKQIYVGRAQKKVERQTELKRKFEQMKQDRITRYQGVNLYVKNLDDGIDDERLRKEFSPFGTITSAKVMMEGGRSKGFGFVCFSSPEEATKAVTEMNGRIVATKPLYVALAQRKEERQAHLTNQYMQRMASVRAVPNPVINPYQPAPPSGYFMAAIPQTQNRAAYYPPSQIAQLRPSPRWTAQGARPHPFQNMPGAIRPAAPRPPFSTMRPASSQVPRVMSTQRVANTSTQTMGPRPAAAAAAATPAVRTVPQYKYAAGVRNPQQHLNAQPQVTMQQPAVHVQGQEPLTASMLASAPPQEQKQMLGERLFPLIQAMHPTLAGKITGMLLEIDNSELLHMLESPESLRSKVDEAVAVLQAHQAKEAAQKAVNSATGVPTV
# [6] = target: Trypsin (Sus scrofa, UniProt P00761); assay: trypsin protease activity blockade – biochemical, quenched peptide fluorescence, cherry-pick, selectivity assay for Rce1 protease inhibitor project, dose response (AID 488789)
# Chain of Trypsin (P00761 whole entry): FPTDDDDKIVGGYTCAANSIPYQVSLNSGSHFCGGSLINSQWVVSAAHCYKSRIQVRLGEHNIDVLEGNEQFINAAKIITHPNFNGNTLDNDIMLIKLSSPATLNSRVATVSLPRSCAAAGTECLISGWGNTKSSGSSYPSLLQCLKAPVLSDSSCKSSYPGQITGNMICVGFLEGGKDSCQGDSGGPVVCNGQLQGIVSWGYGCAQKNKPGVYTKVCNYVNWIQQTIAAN
# [7] = target: T1, CAAX prenyl protease 2 (Saccharomyces cerevisiae S288c, UniProt Q03530); assay type: biochemical
# T1 sequence (Q03530 whole entry): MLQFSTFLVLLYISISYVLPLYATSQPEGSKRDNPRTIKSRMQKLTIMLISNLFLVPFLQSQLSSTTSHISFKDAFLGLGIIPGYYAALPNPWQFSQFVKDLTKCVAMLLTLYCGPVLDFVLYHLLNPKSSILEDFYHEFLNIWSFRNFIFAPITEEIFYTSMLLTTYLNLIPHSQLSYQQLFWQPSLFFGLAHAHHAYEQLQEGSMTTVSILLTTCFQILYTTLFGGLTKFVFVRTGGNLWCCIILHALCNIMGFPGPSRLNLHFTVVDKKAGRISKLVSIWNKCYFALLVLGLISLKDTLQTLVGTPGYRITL
# [8] = target: T2, Estrogen receptor (Homo sapiens, UniProt P03372); assay: blockers of SRC-3 recruitment to ERα – biochemical, ELISA, streptavidin-HRP readout, orthogonal assay, confirmation (AID 1079)
# T2 sequence (P03372 whole entry): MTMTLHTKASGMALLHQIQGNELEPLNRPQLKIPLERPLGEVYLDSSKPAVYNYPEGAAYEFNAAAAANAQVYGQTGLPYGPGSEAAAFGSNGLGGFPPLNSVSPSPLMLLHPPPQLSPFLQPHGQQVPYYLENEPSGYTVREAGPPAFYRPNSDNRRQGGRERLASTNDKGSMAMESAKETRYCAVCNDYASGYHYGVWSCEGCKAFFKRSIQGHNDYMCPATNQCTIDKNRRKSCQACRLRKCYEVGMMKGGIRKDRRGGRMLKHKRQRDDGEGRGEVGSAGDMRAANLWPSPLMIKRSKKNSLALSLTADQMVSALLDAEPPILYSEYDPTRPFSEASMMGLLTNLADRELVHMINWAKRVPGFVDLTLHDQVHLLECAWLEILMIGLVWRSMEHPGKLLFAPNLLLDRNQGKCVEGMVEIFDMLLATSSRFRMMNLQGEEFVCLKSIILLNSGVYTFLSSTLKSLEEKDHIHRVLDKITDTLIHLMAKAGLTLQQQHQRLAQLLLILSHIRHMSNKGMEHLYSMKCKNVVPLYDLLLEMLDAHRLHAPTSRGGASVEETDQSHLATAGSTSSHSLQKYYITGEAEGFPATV
# [9] = antiviral protection against BTV-induced cell death – arbovirus, BSR cells, confirmation (AID 1250); assay type: functional;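 further: protection from viral cytopathic effect measured as cell viability by ATP luminescence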
# [10] = target: T3, Heat shock factor protein 1 (Mus musculus, UniProt P38532); assay: decrease of HSF1-responsive luciferase luminescence – cell-based, NIH3T3, dose retest, confirmation (AID 2382); assay type: functional;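 further: NIH3T3 fibroblasts with HSF1-driven luciferase reporter stressed by proteasome inhibitor MG132; luminescence from HSF1-driven luciferase expression after 8 hours of MG132 stress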
# T3 sequence (P38532 whole entry): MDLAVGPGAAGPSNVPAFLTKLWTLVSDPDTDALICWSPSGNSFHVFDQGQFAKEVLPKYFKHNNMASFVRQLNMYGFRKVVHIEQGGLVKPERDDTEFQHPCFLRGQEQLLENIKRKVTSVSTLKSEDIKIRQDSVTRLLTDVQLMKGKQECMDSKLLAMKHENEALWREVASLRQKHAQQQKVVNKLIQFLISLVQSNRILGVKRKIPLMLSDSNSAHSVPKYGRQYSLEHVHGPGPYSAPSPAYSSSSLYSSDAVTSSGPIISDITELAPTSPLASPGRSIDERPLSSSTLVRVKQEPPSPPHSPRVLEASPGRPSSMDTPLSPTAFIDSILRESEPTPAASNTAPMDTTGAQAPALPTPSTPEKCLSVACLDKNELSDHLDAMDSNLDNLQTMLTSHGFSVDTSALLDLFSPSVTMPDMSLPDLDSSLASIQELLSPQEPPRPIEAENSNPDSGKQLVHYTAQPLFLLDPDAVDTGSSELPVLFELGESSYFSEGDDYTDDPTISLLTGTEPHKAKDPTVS
# [11] = target: Cytochrome P450 2D6 (Homo sapiens, UniProt P10635); assay: qHTS Assay for Inhibitors and Substrates of Cytochrome P450 2D6. [Related pubchem assays: 410 ]; assay type: ADME; settings: read-out: Potency
# Chain of Cytochrome P450 2D6 (P10635 whole entry): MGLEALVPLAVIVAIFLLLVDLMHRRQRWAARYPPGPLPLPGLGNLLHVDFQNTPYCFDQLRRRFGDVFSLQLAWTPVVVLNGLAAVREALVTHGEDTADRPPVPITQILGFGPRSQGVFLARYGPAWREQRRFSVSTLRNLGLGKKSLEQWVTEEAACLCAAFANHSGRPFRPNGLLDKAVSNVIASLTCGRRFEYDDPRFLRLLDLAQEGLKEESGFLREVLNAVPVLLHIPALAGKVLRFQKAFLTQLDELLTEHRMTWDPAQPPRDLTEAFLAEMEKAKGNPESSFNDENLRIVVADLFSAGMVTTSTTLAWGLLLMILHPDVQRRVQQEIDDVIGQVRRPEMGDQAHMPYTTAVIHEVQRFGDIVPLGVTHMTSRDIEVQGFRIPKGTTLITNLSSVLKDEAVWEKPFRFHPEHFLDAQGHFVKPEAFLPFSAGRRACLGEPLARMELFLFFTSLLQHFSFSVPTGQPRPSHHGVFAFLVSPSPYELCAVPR
# [12] = target: Cytochrome P450 3A4 (Homo sapiens, UniProt P08684); settings: Potency;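 further: confirmatory qHTS run detecting inhibitors and substrates of CYP3A4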
# Chain of Cytochrome P450 3A4 (P08684 whole entry): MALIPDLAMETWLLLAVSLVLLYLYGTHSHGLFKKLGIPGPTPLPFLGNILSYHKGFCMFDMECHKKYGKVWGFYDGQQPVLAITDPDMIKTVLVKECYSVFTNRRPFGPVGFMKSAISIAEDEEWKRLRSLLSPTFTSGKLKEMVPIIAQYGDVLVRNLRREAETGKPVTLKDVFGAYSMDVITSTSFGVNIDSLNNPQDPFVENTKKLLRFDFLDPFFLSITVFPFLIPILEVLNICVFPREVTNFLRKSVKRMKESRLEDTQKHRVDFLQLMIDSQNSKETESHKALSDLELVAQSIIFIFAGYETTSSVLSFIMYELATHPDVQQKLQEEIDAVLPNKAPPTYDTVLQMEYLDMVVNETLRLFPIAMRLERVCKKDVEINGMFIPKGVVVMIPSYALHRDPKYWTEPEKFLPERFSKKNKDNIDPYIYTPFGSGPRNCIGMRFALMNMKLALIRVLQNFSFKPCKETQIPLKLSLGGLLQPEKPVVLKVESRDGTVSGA
# [13] = target: Cytochrome P450 2C19 (Homo sapiens, UniProt P33261); assay: Cytochrome panel assay with activity outcomes. Panel member name: p450-cyp2c19 Compounds with AC50 equal or less than 10 uM are considered active; assay type: functional; settings: read-out: AC50
# Chain of Cytochrome P450 2C19 (P33261 whole entry): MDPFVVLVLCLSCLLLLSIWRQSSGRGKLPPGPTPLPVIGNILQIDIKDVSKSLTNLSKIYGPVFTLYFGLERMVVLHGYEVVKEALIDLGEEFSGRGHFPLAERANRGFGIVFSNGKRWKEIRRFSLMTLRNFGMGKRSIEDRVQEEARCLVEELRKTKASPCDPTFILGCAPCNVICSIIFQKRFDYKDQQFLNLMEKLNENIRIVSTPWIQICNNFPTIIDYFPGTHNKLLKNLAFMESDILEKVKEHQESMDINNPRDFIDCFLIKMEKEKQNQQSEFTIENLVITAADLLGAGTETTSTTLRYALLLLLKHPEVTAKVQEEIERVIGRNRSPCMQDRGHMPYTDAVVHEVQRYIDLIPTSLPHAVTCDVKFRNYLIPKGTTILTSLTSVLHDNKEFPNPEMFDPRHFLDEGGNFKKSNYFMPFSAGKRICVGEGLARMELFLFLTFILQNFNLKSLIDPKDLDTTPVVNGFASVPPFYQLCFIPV
# [14] = target: T4, Cytochrome P450 1A2 (Homo sapiens, UniProt P05177);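 further: PubChem cytochrome P450 panel assay, CYP1A2 panel member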
# T4 sequence (P05177 whole entry): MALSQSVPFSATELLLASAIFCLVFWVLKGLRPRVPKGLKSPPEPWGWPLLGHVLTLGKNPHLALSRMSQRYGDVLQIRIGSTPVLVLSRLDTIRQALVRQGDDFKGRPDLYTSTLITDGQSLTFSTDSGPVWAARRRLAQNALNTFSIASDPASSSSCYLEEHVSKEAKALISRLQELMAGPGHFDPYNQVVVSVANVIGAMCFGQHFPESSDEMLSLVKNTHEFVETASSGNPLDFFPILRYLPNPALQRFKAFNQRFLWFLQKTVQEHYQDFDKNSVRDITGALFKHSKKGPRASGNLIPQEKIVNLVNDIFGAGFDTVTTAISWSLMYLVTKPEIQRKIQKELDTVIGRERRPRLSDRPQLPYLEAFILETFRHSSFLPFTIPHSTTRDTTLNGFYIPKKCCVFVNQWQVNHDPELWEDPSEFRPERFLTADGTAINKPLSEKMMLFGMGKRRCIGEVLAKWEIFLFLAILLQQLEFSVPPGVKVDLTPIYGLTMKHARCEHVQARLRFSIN
# [15] = cells; assay type: functional, cell-based
# [16] = target: Large T antigen (Simian virus 40, UniProt P03070); assay type: functional, Betapolyomavirus macacae;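 further: Confirmatory-stage PubChem screen for compounds that inhibit SV40 T antigen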
# [17] = cells; assay type: functional, cell-based; remark: listed apart in the source
# [18] = mitochondrial function rescue without frataxin homolog – Friedreich's ataxia, plus single-dose screen, dose response (AID 1465); assay type: functional;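 further: yeast depleted of Yfh1p frataxin homolog grown on glycerol needing respiration; WST-1 tetrazolium dye reduction as measure of cellular dehydrogenase metabolic activity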
# [19] = target: T5, Mannose-6-phosphate isomerase (Homo sapiens, UniProt P34949); assay: MPI inhibition at elevated mannose 6-phosphate – biochemical, fluorescence intensity, high mannose 6-phosphate, primary screen (AID 1220)
# T5 sequence (P34949 whole entry): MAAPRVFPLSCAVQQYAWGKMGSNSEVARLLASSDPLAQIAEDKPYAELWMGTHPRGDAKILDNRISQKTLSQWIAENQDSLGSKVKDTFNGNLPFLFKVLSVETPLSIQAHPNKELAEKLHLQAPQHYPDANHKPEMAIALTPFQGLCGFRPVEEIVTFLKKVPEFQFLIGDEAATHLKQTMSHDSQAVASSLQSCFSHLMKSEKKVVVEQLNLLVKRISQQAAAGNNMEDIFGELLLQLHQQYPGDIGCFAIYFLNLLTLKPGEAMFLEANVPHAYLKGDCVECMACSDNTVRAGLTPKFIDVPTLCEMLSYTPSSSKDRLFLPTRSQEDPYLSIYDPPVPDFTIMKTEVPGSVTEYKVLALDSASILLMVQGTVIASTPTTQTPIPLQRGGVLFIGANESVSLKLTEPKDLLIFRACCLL
# [20] = target: Nonstructural protein 1 (Influenza A virus, UniProt Q194T2); assay type: functional, Influenza A virus (A/California/07/2009(H1N1))
# Chain of Nonstructural protein 1 (Q194T2 whole entry): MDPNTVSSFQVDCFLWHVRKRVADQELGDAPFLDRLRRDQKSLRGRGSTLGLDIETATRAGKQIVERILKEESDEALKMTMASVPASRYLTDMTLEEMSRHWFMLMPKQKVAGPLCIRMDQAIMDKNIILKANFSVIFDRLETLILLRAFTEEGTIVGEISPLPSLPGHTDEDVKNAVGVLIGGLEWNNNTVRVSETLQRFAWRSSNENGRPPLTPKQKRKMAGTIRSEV
# [21] = tested on: INS1; assay: INS-1E survival protection against cytokine death – cell-based, luminescence, retest, dose response (AID 449756); assay type: functional; settings: Rattus norvegicus;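 further: cell death triggered by IL-1 beta plus TNF-alpha plus IFN-gamma mixture; protective hits raise ATP signal compared with cytokine alone wells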
# [22] = target: T6, Histone-lysine N-methyltransferase NSD2 (Homo sapiens, UniProt O96028); assay type: biochemical
# T6 sequence (O96028 whole entry): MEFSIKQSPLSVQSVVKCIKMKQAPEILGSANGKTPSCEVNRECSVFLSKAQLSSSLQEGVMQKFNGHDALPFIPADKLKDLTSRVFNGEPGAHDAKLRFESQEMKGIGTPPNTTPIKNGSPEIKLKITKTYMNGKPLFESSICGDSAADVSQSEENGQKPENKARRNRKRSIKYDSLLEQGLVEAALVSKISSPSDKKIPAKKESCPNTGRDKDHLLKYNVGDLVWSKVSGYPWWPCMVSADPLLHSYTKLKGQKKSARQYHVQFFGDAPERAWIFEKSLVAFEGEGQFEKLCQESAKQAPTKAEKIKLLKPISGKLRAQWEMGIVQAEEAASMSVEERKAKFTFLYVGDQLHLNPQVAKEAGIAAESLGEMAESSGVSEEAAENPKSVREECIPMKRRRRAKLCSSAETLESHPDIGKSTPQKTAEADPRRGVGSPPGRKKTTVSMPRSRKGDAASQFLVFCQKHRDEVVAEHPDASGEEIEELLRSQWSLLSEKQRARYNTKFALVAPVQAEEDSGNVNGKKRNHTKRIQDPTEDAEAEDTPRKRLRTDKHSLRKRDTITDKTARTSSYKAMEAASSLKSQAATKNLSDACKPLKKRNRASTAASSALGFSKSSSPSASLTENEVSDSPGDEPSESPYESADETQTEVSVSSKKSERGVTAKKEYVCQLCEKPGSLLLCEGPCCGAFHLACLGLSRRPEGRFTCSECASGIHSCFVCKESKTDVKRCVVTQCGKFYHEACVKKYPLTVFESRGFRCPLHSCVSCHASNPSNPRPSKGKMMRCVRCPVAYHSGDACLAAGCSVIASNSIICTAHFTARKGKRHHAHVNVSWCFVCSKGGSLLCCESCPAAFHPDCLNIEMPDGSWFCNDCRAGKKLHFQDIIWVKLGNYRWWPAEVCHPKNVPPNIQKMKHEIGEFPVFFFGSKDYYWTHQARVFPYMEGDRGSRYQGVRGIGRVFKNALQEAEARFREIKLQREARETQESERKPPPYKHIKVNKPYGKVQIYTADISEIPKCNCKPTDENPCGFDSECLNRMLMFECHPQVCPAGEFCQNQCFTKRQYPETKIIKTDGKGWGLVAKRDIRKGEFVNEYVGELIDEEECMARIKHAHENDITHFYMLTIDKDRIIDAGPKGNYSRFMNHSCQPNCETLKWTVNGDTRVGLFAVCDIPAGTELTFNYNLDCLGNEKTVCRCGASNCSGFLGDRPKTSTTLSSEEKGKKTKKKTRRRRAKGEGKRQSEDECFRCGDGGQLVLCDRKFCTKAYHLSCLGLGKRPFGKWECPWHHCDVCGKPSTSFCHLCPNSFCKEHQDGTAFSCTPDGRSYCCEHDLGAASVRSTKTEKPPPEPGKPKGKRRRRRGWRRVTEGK
structure (smiles),measurement,setting,value
CCCNC(=O)C(CC)NS(=O)(=O)c1ccc(OC)cc1 (configuration not stated),EC50,[1],> 79.4 µM (not active)
same,EC50,[2],> 79.4 µM (not active)
same,EC50,[3],> 79.4 µM (not active)
CCC(c1nnc(SCCNCCO)n1CCN1CCOCC1)N(C)C (configuration not stated),IC50,[4],> 100 µM (inactive)
same,IC50,[5],7.33 µM (active)
Nc1ccc2c(C(F)(F)F)cc(C(F)(F)F)nc2n1,AC50,[6],10.7 µM (active)
same,AC50,[7],> 100 µM (inactive)
O=C(CCCCCn1c(=S)[nH]c2ccccc2c1=O)N1CCC(O)(c2ccc(Cl)cc2)CC1,IC50,[8],0.08 µM (not active)
Cc1ccc2nc(NC(=O)C3=NN(c4ccccc4)C(=O)CC3)sc2c1,IC50,[9],29 µM (active)
c1ccc(-c2ccc(-c3cn4c(n3)CCC4)cc2)cc1,AC50,[6],2.37 µM (active)
same,AC50,[7],4.15 µM (active)
O=C(CCCn1c(=S)[nH]c2ccccc2c1=O)N1CCN(c2cccc3ccccc23)CC1,IC50,[8],0.07 µM (not active)
CC(C)Oc1ccc(OCCSc2nc3ccccc3n2CC(=O)O)cc1,IC50,[4],> 100 µM (inactive)
same,EC50,[10],> 195 µM (not active)
same,IC50,[5],11.5 µM (active)
CCCCCCC1=Cc2cc(OC)c(OC)cc2C(C(C(C)=O)C(=O)OCC)O1 (configuration not stated),AC50,[11],6.31 µM (inconclusive)
same,AC50,[12],3.16 µM (inconclusive)
CCOC(=O)CC(=O)CSc1nc(-c2ccccc2)cc(-c2ccc(Cl)cc2)c1C#N,EC50,[1],14.8 µM (not active)
same,EC50,[2],16.4 µM (not active)
same,EC50,[3],18.7 µM (not active)
same,AC50,[13],7.08 µM (inconclusive)
same,AC50,[14],2.24 µM (inconclusive)
Oc1cccc(/C=N/NC(=S)Nc2cccnc2)c1O,EC50,[15],13.6 µM (active)
same,IC50,[16],15 µM (active)
same,EC50,[17],83 µM (active)
same,EC50,[18],> 100 µM (active)
same,IC50,[19],16.1 µM (active)
same,IC50,[20],1.83 µM (active)
same,AC50,[21],0.976 µM (active)
same,AC50,[22],12.4 µM (active)
O=c1c(O)c(-c2ccc(O)cc2)oc2cc(O)ccc12 [RESOKAEMPFEROL],AC50,[11],20 µM (inconclusive)
same,AC50,[12],39.8 µM (inconclusive)
